One block for each compound: values may come before it. The source made the active and inactive calls. The calls are words filed in the database; no cut-off is given here.
Assays:
MKN-45 [1] = test: Induction of c-MET degradation in human MKN-45 cells assessed as residual activity at 100 nM incubated for 24 hrs by Western blot analysis (reference value: 100 %); assay type: cell-based
[2] = Toxicity in BALB/c nude mouse xenografted with human MKN-45 cells assessed as body weight loss at 10 mg/kg, po administered once daily for 21 days; assay type: organism-based; conditions: in vivo, 504 h, time 21 day
[3] = Toxicity in BALB/c nude mouse xenografted with human MKN-45 cells assessed as effect on lung morphology at 10 mg/kg, po administered once daily for 21 days by H and E staining based analysis; assay type: organism-based; conditions: in vivo, 504 h, time 21 day
[4] = Toxicity in BALB/c nude mouse xenografted with human MKN-45 cells assessed as effect on liver morphology at 10 mg/kg, po administered once daily for 21 days by H and E staining based analysis; assay type: organism-based; conditions: in vivo, 504 h, time 21 day
[5] = Toxicity in BALB/c nude mouse xenografted with human MKN-45 cells assessed as effect on spleen morphology at 10 mg/kg, po administered once daily for 21 days by H and E staining based analysis; assay type: organism-based; conditions: in vivo, 504 h, time 21 day
[6] = Toxicity in BALB/c nude mouse xenografted with human MKN-45 cells assessed as effect on kidney morphology at 10 mg/kg, po administered once daily for 21 days by H and E staining based analysis; assay type: organism-based; conditions: in vivo, 504 h, time 21 day
[7] = Toxicity in BALB/c nude mouse xenografted with human MKN-45 cells assessed as effect on heart morphology at 10 mg/kg, po administered once daily for 21 days by H and E staining based analysis; assay type: organism-based; conditions: in vivo, 504 h, time 21 day
[8] = AUC (0 to infinity) in po dosed rat; assay type: ADME, organism-based; conditions: in vivo
[9] = Cmax in po dosed rat; assay type: ADME, organism-based; conditions: in vivo
[10] = Half-life in Wistar rat at 20 mg/kg, po measured after 24 hrs by UPLC-MS/MS analysis; assay type: ADME, organism-based; conditions: in vivo
[11] = Tmax in Wistar rat at 20 mg/kg, po measured after 24 hrs by UPLC-MS/MS analysis; assay type: ADME, organism-based; conditions: in vivo
[12] = biological target: Protein cereblon/Hepatocyte growth factor receptor (Homo sapiens, UniProt P08581+Q96SW2); test: PROTAC activity at CRBN/c-MET in human MKN-45 cells assessed as induction of c-MET degradation incubated for 72 hrs by Western blot analysis; assay type: cell-based
MKN-45 [13] = test: Antiproliferative activity against human MKN-45 cells incubated for 72 hrs by CCK8 assay; assay type: functional, cell-based; conditions: MKN-45, 72 h
[14] = biological target: T1, von Hippel-Lindau disease tumor suppressor/Hepatocyte growth factor receptor (Homo sapiens, UniProt P08581+P40337); test: PROTAC activity at VHL/c-MET in human MKN-45 cells assessed as induction of c-MET degradation by measuring residual activity at 100 nM incubated for 24 hrs by Western blot analysis (reference value: 100 %); assay type: cell-based
Target sequence in this assay (P40337 whole entry partner): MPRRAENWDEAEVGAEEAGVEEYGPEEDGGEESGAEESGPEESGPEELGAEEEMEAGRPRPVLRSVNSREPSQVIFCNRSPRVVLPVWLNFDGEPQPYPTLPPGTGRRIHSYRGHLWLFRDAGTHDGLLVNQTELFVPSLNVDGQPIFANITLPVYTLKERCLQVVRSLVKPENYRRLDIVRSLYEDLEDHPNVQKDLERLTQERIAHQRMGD
Target sequence in this assay (P08581 25-1390 limits assumed): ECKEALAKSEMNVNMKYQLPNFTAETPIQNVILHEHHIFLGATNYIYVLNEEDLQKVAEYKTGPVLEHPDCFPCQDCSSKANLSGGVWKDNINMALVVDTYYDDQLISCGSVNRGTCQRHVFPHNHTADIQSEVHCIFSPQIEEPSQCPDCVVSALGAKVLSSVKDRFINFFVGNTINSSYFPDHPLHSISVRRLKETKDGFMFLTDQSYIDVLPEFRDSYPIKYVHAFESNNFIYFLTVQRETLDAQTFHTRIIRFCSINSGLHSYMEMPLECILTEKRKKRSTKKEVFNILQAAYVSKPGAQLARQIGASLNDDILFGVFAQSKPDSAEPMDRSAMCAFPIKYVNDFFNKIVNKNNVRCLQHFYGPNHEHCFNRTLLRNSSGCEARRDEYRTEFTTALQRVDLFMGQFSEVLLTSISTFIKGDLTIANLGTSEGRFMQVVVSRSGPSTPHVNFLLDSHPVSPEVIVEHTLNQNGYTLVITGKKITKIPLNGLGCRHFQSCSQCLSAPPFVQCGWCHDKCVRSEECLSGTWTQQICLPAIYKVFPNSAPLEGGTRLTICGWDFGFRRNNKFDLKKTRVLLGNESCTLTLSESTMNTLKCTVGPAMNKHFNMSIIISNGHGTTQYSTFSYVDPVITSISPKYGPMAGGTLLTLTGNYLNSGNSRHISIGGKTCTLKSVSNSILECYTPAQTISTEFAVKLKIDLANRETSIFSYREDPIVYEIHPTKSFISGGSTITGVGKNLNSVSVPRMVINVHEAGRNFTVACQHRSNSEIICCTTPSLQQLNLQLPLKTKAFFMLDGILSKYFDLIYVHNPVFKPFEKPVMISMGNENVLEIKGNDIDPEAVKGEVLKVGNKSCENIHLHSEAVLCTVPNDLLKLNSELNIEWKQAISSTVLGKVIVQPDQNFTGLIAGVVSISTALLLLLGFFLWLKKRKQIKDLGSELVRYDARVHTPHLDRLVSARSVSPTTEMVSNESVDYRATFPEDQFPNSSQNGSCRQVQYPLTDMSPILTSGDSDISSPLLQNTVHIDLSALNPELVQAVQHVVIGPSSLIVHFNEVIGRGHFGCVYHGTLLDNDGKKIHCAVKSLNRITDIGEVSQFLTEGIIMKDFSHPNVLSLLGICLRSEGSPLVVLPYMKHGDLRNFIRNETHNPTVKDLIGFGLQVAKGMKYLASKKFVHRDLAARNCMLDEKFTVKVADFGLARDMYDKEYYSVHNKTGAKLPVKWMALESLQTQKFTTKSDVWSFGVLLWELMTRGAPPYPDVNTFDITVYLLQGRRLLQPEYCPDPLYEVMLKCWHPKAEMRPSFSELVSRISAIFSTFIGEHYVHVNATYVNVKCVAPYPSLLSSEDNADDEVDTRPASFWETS

MKN-45 [15] = test: Downregulation of KPNA2 protein level in human MKN-45 cells by MS-based quantitative proteomics analysis; assay type: functional, cell-based
MKN-45 [16] = test: Downregulation of SLC7A1 protein level in human MKN-45 cells by MS-based quantitative proteomics analysis; assay type: functional, cell-based
MKN-45 [17] = test: Upregulation of PDCD4 protein level in human MKN-45 cells by MS-based quantitative proteomics analysis; assay type: functional, cell-based
[18] = biological target: T1, von Hippel-Lindau disease tumor suppressor/Hepatocyte growth factor receptor; test: PROTAC activity at VHL/c-MET in human MKN-45 cells assessed as induction of c-MET degradation at 6.25 to 100 nM incubated for 24 hrs by Western blot analysis; assay type: cell-based; conditions: dose 6.25-100 nM
Target sequence in this assay (P40337 whole entry partner): as the sequence (P40337 whole entry partner) above
Target sequence in this assay (P08581 25-1390 limits assumed): as the sequence (P08581 25-1390 limits assumed) above

[19] = biological target: von Hippel-Lindau disease tumor suppressor/Importin subunit alpha-1 (Homo sapiens) (UniProt P52292+P40337); test: PROTAC activity at VHL/KPNA2 in human MKN-45 cells assessed as induction of c-MET degradation at 6.25 to 100 nM incubated for 24 hrs by Western blot analysis; assay type: cell-based; conditions: dose 6.25-100 nM
HCC1954 = test: Antiproliferative activity against human HCC1954 cells incubated for 72 hrs by MTT assay; assay type: functional, cell-based; conditions: HCC1954, 72 h
[20] = biological target: T1, von Hippel-Lindau disease tumor suppressor/Hepatocyte growth factor receptor; test: PROTAC activity at VHL/c-MET (unknown origin); assay type: protein
Target sequence in this assay (P08581 whole entry): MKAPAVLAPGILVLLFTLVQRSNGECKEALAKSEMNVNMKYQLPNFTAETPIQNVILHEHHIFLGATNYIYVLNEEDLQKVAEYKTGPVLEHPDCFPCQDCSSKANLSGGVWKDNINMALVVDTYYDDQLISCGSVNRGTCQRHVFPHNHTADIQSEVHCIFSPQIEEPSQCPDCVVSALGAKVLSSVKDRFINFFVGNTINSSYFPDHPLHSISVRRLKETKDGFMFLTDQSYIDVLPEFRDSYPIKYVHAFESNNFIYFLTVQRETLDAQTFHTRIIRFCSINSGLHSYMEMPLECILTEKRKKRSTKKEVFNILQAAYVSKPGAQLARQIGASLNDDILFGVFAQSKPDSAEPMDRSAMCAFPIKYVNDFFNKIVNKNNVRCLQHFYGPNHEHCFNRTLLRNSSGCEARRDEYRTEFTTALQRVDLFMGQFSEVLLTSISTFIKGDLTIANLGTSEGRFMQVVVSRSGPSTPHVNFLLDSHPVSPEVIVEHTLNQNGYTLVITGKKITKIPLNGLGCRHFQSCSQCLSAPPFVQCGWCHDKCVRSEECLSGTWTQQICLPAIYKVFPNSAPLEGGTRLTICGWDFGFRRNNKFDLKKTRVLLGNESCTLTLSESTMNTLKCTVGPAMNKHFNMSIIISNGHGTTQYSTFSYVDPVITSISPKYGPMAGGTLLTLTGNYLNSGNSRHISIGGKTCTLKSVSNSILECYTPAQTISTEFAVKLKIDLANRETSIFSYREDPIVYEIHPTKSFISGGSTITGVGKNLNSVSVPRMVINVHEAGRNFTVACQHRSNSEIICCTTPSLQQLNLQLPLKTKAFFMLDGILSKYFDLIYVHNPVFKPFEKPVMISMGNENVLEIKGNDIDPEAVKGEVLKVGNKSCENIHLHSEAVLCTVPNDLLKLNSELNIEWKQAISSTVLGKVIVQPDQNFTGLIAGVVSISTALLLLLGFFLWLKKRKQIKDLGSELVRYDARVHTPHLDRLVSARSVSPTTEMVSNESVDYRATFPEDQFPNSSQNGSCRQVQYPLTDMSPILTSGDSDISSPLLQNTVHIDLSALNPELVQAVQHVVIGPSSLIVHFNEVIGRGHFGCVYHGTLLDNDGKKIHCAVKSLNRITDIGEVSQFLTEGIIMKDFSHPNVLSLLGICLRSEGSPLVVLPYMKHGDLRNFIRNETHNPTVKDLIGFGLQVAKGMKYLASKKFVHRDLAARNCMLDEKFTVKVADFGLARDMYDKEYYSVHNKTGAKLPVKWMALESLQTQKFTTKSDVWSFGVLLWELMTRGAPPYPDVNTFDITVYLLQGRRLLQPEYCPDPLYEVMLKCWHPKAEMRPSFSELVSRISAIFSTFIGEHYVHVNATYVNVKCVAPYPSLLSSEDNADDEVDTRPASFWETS
Target sequence in this assay (P40337 whole entry): as the sequence (P40337 whole entry partner) above

MKN-45 [21] = test: Downregulation of prothymosin-alpha protein abundance in human MKN-45 cells by MS-based quantitative proteomics analysis; assay type: functional, cell-based
MKN-45 [22] = test: Downregulation of HMGCS1 protein level in human MKN-45 cells by MS-based quantitative proteomics analysis; assay type: functional, cell-based

Protein cereblon/Hepatocyte growth factor receptor, sequence (P08581 whole entry): as the sequence (P08581 whole entry) above
Protein cereblon/Hepatocyte growth factor receptor, sequence (Q96SW2 whole entry): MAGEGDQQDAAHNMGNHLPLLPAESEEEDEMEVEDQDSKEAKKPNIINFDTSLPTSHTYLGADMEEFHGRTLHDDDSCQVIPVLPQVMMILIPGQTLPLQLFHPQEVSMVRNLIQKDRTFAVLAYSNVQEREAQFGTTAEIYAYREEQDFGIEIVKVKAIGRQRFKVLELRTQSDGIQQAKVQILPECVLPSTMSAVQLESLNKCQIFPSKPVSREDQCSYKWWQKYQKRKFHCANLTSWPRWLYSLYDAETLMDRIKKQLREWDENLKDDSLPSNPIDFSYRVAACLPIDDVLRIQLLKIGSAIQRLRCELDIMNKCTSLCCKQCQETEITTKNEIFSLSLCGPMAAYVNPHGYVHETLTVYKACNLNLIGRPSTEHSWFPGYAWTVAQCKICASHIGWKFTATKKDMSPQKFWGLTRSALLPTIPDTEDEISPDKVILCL

SMILES: CNC(=O)c1ccc(-c2cnc3ncc(Cc4ccc5ncccc5c4)n3n2)cc1F [CAPMATINIB]
- Activity (MKN-45 [1]): 112%
- Activity [2]: Non-toxic
- Activity [3]: Non-toxic
- Activity [4]: Non-toxic
- Activity [5]: Non-toxic
- Activity [6]: Non-toxic
- Activity [7]: Non-toxic
- AUC(0-inf) [8]: 10400 ng·h/mL
- Cmax [9]: 3820 ng/mL
- half-life [10]: 4.09 h
- Tmax [11]: 0.5 h

SMILES: C[C@@H](Oc1cc(-c2cnn(C3CCN(C(=O)CCCCCCCOc4cccc5c4C(=O)N(C4CCC(=O)NC4=O)C5=O)CC3)c2)cnc1N)c1c(Cl)ccc(F)c1Cl (some centres not stated)
- DC50 [12]: > 100 nM
- IC50 (MKN-45 [13]): 347 nM

SMILES: COc1cc2c(Oc3ccc(NC(=O)C4(C(=O)Nc5ccc(F)cc5)CC4)cc3)ccnc2cc1OCCCOCCCOCCC(=O)N[C@H](C(=O)N1C[C@H](O)C[C@H]1C(=O)NCc1ccc(-c2scnc2C)cc1)C(C)(C)C
- IC50 (HCC1954): 6700 nM
- DC50 [20]: > 1110 nM

Now from value to compound, other results behind:

- IC50 (MKN-45 [13]): 70.7 nM
- Activity [14]: 64%
- Activity [18]: Active
- Activity [19]: Active
SMILES: Cc1ncsc1-c1ccc([C@H](C)NC(=O)[C@@H]2C[C@@H](O)CN2C(=O)[C@@H](NC(=O)CCCCCCCCC(=O)N2CCC(n3cc(-c4cnc(N)c(O[C@H](C)c5c(Cl)ccc(F)c5Cl)c4)cn3)CC2)C(C)(C)C)cc1
- Activity (MKN-45 [15]): Active
- Activity (MKN-45 [16]): Active
- Activity (MKN-45 [17]): Active

- IC50 (MKN-45 [13]): 102 nM
- Activity [14]: 50%
SMILES: Cc1ncsc1-c1ccc([C@H](C)NC(=O)[C@@H]2C[C@@H](O)CN2C(=O)[C@@H](NC(=O)CCCCCCCCC(=O)N2CCC(COc3cnc(-c4cccc(Cn5nc(-c6cccc(C#N)c6)ccc5=O)c4)nc3)CC2)C(C)(C)C)cc1
- Activity (MKN-45 [21]): Active
- Activity (MKN-45 [22]): Active
- Activity (MKN-45 [17]): Active

— ChEMBL document CHEMBL6120971 (J Med Chem, 2024)
